Laboratory results: US7781423B2, “Compounds to promote regeneration of bone marrow” (priority 2007, dated 2010)

Tests used:
healthy mice = assay: Toxicity in healthy mice; type: in vivo; conditions: for well tolerated maximal dose: mice weighing about 25 g
Description: Accordingly, a well tolerated maximal dose for CCompound1 or CCompound3 in mice (weighing about 25 g) is […] which corresponds to a dose of 4.6 mg/kg. Therapeutically effective concentrations of CC compounds in humans will exert significant promoting effects on bone marrow regeneration without causing toxicity in other normal healthy tissues.

[1] = system: granulocyte-macrophage colony-forming units (CFU-GM); assay: Recovery of bone marrow function after sublethal whole body irradiation (nucleated BM cells, CFU-GM assay); type: in vivo, C57B1 mice; conditions: for CFU-GM per femur / CFU-GM/10^5 nucleated BM cells: CCompound1 4.5 mg per kg i.p. daily, day -3 to day +3; for CFU-GM/10^5 nucleated BM cells: colonies counted on day 7 of culture
Description: This experiment served to determine if CCompound1 was able to promote regeneration of partially ablated bone marrow from endogenous stem cells i.e. promote restoration of the capacity of bone marrow to produce blood cells. The CFU-GM assay was performed because the number of CFU-GM per femur is a good indicator of bone marrow regeneration. Ballestrero, A., Ferrando, F., Garuti, A., Basta, P., Gonella, R., Stura, P., Mela, G. S., Sessarego, M, Gobbi, M. and Patrone, F., “Comparative effects of three cytokine regimens after high-dose cyclophosphamide: Granulocyte colony-stimulating factor, granulocyte-macrophage colony-stimulating factor (GM-CSF), and sequential interleukin-3 and GM-CSF,” J. Clin. Oncol., 17, 1296-1303 (1999).
C57B1 female (10-14 weeks old) mice received sublethal (250 cGy) whole body irradiation from a ^137Cesium source (day 0). Starting three days before irradiation, animals received daily 4.5 mg per kg of CCompound1 via intraperitoneal injection; this treatment also was provided on day 0 and once daily for three days subsequent to irradiation. In another group, mice were injected only with physiological saline. The subsequent procedure has been reported in Vas, V., Fajka-Boja, R., Ion, G. A., Dudics, V., Monostori, E. and Uher, F., “Biphasic effect of recombinant Galectin-1 on the growth and death of early hematopoietic cells,” Stem Cells, 23, 279-287 (2005). Briefly, bone marrow was flushed from the femurs with Iscove's modified Dulbecco's medium (Gibco BRL, Gaithersburg, Md., USA), and after standard erythrocyte lysis, nucleated cells were counted using a hemocytometer. […] To measure the formation of the granulocyte-macrophage colony-forming units (CFU-GM), a semisolid colony-forming cell assay was used. Nucleated bone marrow cells (isolated on the days as indicated above) were plated in 35-mm Petri dishes (Costar, Cambridge, Mass., USA) in Iscove's modified Dulbecco's medium supplemented with 1% methylcellulose, 30% horse serum (Gibco), 10% WEHI-3B conditioned medium as a source of growth factors, 4 mM L-glutamine, 0.25 mM a-thioglycerol (Gibco), 1% deionized bovine serum albumine (Sigma), and antibiotics (Gibco). Cells were cultured at 37° C. in 5% CO2/95% air atmosphere and colonies were counted on day 7 in the same dish. Colonies containing at least 50 cells were counted which is a generally accepted value in the literature. Each value represents the mean±st. dev. of 9 samples (3 parallel dishes from each animal).

[2] = system: NIH 3T3, A431, MCF-7, MEL-28, HT-29, A549, T47D, CaOV-3, ZR-75-1, HTB-157, MEL-24, Hep G2, CaCO-2, MB-231 cells; assay: MTT survival/proliferation experiments on the panel of normal and cancer cells; type: cell-based, human, mouse; conditions: serum-free (survival) or 2% serum (proliferation); 72 hours; lower and higher (50 μM) concentration
Description: The NIH 3T3 (normal) mouse fibroblast, A431 human epidermoid adenocarcinoma, and MCF-7 human breast cancer cells were cultured in DMEM medium containing 10% FBS. The MEL-28 human melanoma cells were cultured in MEM medium containing 10% FBS. The HT-29 human colon adenocarcinoma cells were cultured in McCoy's 5a medium containing 10% FBS. The A549 human lung carcinoma cells were maintained in Ham's F12K medium containing 10% FBS. T47D cells were cultured in 12-well plates in RPMI 1640 medium supplemented with 0.2 IU bovine insulin and 10% FBS. CaOV-3 human ovarian cancer cells were cultured in DMEM containing 10% FBS. ZR-75-1 human estrogen receptor-positive breast cancer cells were maintained in RPMI 1640 medium supplemented with 10% FBS. HTB-157 human fetal fibroblasts, MEL-24 human malignant melanoma cells, Hep G2 human hepatoblastoma cells, and CaCO-2 human colon adenocarcinoma cells were maintained in Eagles's MEM containing 10% FBS. MB-231 human estrogen receptor-negative breast cancer cells were maintained in Leibovitz's L-15 medium supplemented with 10% FBS.
In the actual experiments, cells were seeded into 96-well plates and cultivated up to either ˜70-90% confluency (survival experiments) or 20-25% confluency (proliferation experiments). Then the medium was changed for serum-free medium (survival experiment) or 2% serum-containing medium (proliferation experiment). […]

[3] = single 450 μmole (about 4.6 mg/kg) or daily 400 μmole for 5 consecutive days
[4] = day 3 after 250 cGy irradiation
[5] = day 6 after 250 cGy irradiation
[6] = day 10 after 250 cGy irradiation

## Cc1c(OCC(O)C[N+](C)(C)C)cc2c(=O)c3ccccc3sc2c1C.[Cl-] (stereo not drawn) [CCcompound1, [3-(3,4-Dimethyl-9-oxo-9H-thioxanthen-2-yloxy)-2-hydroxypropyl]trimethyl-ammonium chloride]
Healthy mice
  well tolerated maximal dose: 450 μmole/animal
Healthy mice; corresponds to 450 μmole/animal
  well tolerated maximal dose: 4.6 mg/kg
Healthy mice; [3]
  change in the composition of various blood constituents: did not cause any significant change
  pathological alterations in the liver, brain, kidney, heart, spleen, intestine, and lung: did not induce significant pathological alterations
[1]; [4]
  CFU-GM per femur: 508
  CFU-GM/10^5 nucleated BM cells: 87.8 ± 9.0
[1]; [5]
  CFU-GM per femur: 713
  CFU-GM/10^5 nucleated BM cells: 92.3 ± 7.2
[1]; [6]
  CFU-GM per femur: 1,081
  CFU-GM/10^5 nucleated BM cells: 94.4 ± 8.1
[1]; from the third day on after sublethal irradiation
  effect on number of nucleated bone marrow cells and CFU-GM: enhanced the number of nucleated bone marrow cells and CFU-GM
[2]
  enhancement of survival or proliferation: Neither the lower nor the higher concentration of CCompound1 enhanced the survival or proliferation
